Measurements as given in patent publication US11198741B2, “Medicines for topic use based on sulfated hyaluronic acid as activating or inhibiting agent of the cytokine activity” (Fidia Farmaceutici S.p.A., priority 2009, dated 2021).

Legend:
IL-10 = assay: Gene expression of IL-10 in human synoviocytes (PCR Real Time); format: cell-based; conditions: 3 days of treatment, FIG. 1: HAS1 0.5 mg/ml, HAS3 0.1 mg/ml, vs control treated with non-sulfated HA 200 KD
Protocol: (§1) Human synoviocytes previously expanded in vitro and maintained in a culture at 37° C. with a medium of DMEM containing 10% of FCS, were seeded at a concentration of 20,000 cells per well (synoviocytes are cells capable of producing various types of cytokines, and are therefore normally used for this type of experimental test). […] After 3 days of treatment, the PCR Real Time was effected to evaluate the gene expression of IL-10 and IL-12: the cell RNA was extracted using the “Trizol” method, following the indications of the supplier (TRIZOL reagent, LIFE Technologies, GIBCO BRL). In short, the cells were lysed by the addition of 1.0 ml of Trizol and the total RNA was quantified by measuring its absorbance at 260 nm. The appropriate primers were selected for each gene to be amplified, using the software Primer3 (Roche Molecular Diagnostics, Pleasanton, Calif., USA). The gene expression was evaluated by means of PCR Real Time effected with a Rotor-gene TM5500 (Corbett research, Sydney, Australia). The PCR reactions were effected using primers at […] and SYBR Green (Invitroge, Carlsbad, Calif., USA) at 40 cycles of 15 s at 95° C., and 1 min. at 60° C. The value of “Fluorescence thresholds (Ct)” was automatically determined by the software, evaluating an amplification coefficient for the genes studied between 92 and 110%. […]

IL-12 [1] = assay: Gene expression of IL-12 in human synoviocytes (PCR Real Time); format: cell-based; conditions: 3 days of treatment, FIG. 2: 0.5 mg/ml, vs control treated with non-sulfated HA 200 KD
Protocol: as §1

IL-6 receptor = biological target: T1, IL-6 receptor (Homo sapiens, UniProt P08887); assay: Inhibition of the binding of 125I-IL-6 to its receptor in U266 myeloma cells (Radioligand Binding); conditions: 125I-IL-6 0.08 nM, sample 1 mg/ml, 4° C. 16 hours, both medium and low MW
T1 construct: the line of human myeloma U266 was used, sensitive to the cytotoxic activity of IL-6, expressing its relative receptor; endogenous in cells; host or cells: U266 human myeloma (whole cells)
T1 sequence (P08887 20-468): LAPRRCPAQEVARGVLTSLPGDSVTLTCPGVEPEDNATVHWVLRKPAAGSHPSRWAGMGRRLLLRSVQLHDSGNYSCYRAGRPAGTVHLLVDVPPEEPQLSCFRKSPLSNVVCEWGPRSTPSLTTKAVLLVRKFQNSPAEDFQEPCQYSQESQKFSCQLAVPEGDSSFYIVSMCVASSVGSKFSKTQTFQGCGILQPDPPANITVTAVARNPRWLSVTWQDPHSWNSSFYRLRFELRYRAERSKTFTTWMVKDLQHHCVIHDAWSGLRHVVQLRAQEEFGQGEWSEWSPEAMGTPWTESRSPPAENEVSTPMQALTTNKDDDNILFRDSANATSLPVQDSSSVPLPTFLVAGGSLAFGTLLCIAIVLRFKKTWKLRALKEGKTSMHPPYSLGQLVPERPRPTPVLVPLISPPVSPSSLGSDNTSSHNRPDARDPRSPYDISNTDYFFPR
Text: These experiments were effected to evaluate the effectiveness of the samples tested (prepared according to Examples 1-3 and 4) on the capacity of inhibiting the binding of IL-6 to its receptor expressed in human myeloma U266, normally used in vitro for this type of experiment, carried out with iodinated cytokine components for an evaluation in Radioligand Binding assays. The experimental procedure was effected as described in Taga T. et al., J Exp Med, 1987, 166:967-981. In short, the line of human myeloma U266 was used, sensitive to the cytotoxic activity of IL-6, expressing its relative receptor. […] At the end of the incubation, the cells were washed with phosphate buffer, centrifuged at 9,000 rpm and the pellet counted in a γ-counter.

[2] = test system: Herpes Simplex Virus-2 (HSV-2: G, 196 and Lyons strain); assay: Inhibition of viral cytopathogenicity in E6SM fibroblast cells, HSV-2; format: cell-based; conditions: 2nd day of incubation, numbers only in FIG. 10
[3] = test system: Vesicular stomatitis virus: VSV; format: cell-based
[4] = test system: Cytomegalovirus (CMV: AD-169 and Davis strain); assay: Inhibition of Cytomegalovirus plaque formation in HEL cells; format: cell-based; conditions: numbers only in FIG. 11
Protocol: The activity of the samples tested was determined by evaluating the inhibition of the cytopathogenicity determined by Cytomegalovirus (CMV: AD-169 and Davis strain) using the previous protocol. The antiviral activity was tested vs HEL cells (pulmonary embryonic cells) and was expressed as the concentration required for inhibiting the number of plaques formed by the above virus by 50%.

[5] = Hydrating and protective activity of creams on the forearm (corneometer, Visioscan); format: in vivo; conditions: human subjects
Protocol: 20 human subjects aged between 18 and 70 years, with no skin pathologies and pharmacological treatment underway, were treated daily with certain and constant quantities of the products tested, at the level of the forearm. The experimental products were: control: consisting of a hydrating base cream base cream (as control) containing HA 200 KD 01% base cream (as control) containing HAS3 01%, prepared according to Example 1-2 […]

IL-12 [6] = assay: Protein synthesis of IL-12 in human PBMC (SearchLight array); conditions: not stimulated or stimulated with LPS or PHA (10 μg/ml), 24 hours, FIG. 8: 1 mg/ml, vs HA
Protocol: For these experimentations, mononucleate cells of human peripheral blood (PBMC) were adopted, deriving from various donors for evaluating the effect of HAS on the production of the cytokines listed above, using:
The separation of the PBMC (Bøyum A., Scand J Clin Lab Invest 21 Suppl, 1968, 97:77-89) was effected using the product Ficoll-Paque PLUS (GE Healthcare) and following the protocol indicated by the supplier. At day zero 100,000 cells were plated per well (using plates with 96 wells) in 200 μl of medium RPMI 1640, to which 10% of fetal bovine serum, HEPES 10 mM, Glutamine 2 mM, 1% Penicillin-Streptomycin 100 U/ml, had been added. […] The cells were treated separately with the three compounds at a concentration of 0.1 mg/ml or 1 mg/ml. After 24 hours of incubation at 37° C. (5% CO2), 100 μl of supernatant were taken from each well in order to analyze the production of IL-2, IL-7, IL-10 and IL-12.
The quantification of the inflammation mediators was effected by means of the SearchLight® technology, using a Custom Human 9-flex Array plate following the protocol indicated by the supplier in the technical card.

Substance: sulfated hyaluronic acid degree 3 [HAS3]
- gene expression of the cytokine IL-10 (IL-10): significant increase
- gene expression of IL-12 (synthesis of its mRNA) (IL-12 [1]): halving the synthesis of its mRNA
- inhibition of the binding of IL-6 to its receptor (IL-6 receptor): 100%
- antiviral activity (inhibition of the cytopathogenicity of the virus) vs HSV-2 [2]: powerful antiviral action
- antiviral activity (inhibition of the cytopathogenicity of the virus) vs VSV [3]: very powerful antiviral activity
- antiviral activity vs Cytomegalovirus (inhibition of the number of plaques) [4]: clear and significant positive result
- skin roughness index ([5]; after 7 days of treatment, base cream containing HAS3 01%, with respect to the controls): significantly diminished
- hydrating effect of the skin (corneometer) ([5]; daily, T7 vs T0, base cream containing HAS3 01%, vs base cream and cream containing HA): greater hydrating effect
- synthesis of IL-12 (IL-12 [6]): significantly reducing
